Test results published in US7560466B2, “Methods of treating or preventing autoimmune diseases with 2,4-pyrimidinediamine compounds” (Rigel Pharmaceuticals, Inc., priority 2003, dated 2009).
pIC50: −log10 of the molar value. Counter-ions that a name gives are not always drawn. Like-named read-outs stand apart in the source and are kept apart here.

Tested on: cultured human mast cells (CHMC), IgE-induced degranulation
Assay: CHMC low cell density IgE activation: tryptase assay
Format: cell-based
Summary of the method: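 Cord-blood CD34+-derived mucosal mast cells (SCF/IL-6 medium), 1000–1500 cells/well, preincubated with compound 1 h at 37°C, then anti-IgE stimulated 30 min at 37°C.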

[1] = CHMC low cell density, 3pt, read-out: LD Tryptase, CHMC, IgE, 3pt
[2] = CHMC low cell density, 8pt, read-out: LD Tryptase, CHMC, IgE, 8pt
[3] = low cell density CHMC, 8-point, read-out: LD Tryptase, CHMC, IgE, 8pt
[4] = low cell density CHMC, 3-point, read-out: LD Tryptase, CHMC, IgE, 3pt

Row | Structure (SMILES) | pIC50 [3] | other results
1 | CNC(=O)COc1cccc(Nc2ncc(F)c(Nc3ccc4c(n3)NC(=O)C(C)(C)O4)n2)c1 [Compound 986, N4-(2,2-Dimethyl-3-oxo-4H-5-pyrid[1,4]oxazin-6-yl)-5-fluoro-N2-[3-(N-methylamino)carbonylmethyleneoxyphenyl]-2,4-pyrimidinediamine Hydrogen Chloride Salt] |  | pIC50 [1]: > 5.00; pIC50 [2]: > 5.00
2 | COc1c(C)cc(Nc2ncc(F)c(Nc3ccc4c(c3)NCC(C)(C)O4)n2)cc1Cl [Compound 1001, N2-(3-Chloro-4-methoxy-5-methylphenyl)-N4-(3,4-dihydro-2,2-dimethyl-4H-benz[1,4]oxazin-6-yl)-5-fluoro-2,4-pyrimidinediamine] |  | pIC50 [2]: > 5.00
3 | COc1cc(Nc2ncc(F)c(Nc3ccc4c(c3)NCC(C)(C)O4)n2)cc(OC)c1 [Compound 1002, N4-(3,4-Dihydro-2,2-dimethyl-4H-benz[1,4]oxazin-6-yl)-N2-(3,5-dimethoxyphenyl)-5-fluoro-2,4-pyrimidinediamine] |  | pIC50 [2]: > 5.00
4 | CC(C)c1cccc(Nc2ncc(F)c(Nc3ccc4c(n3)NC(=O)C(C)(C)O4)n2)c1 [Compound 1003, N4-(2,2-Dimethyl-3-oxo-4H-5-pyrid[1,4]oxazin-6-yl)-5-fluoro-N2-(3-isopropylphenyl)-2,4-pyrimidinediamine] |  | pIC50 [1]: > 5.00; pIC50 [2]: > 5.00
5 | CC1(C)Oc2ccc(Nc3nc(Nc4ccc(-c5ncco5)cc4)ncc3F)nc2NC1=O [Compound 1035, N4-(2,2-Dimethyl-3-oxo-4H-5-pyrid[1,4]oxazin-6-yl)-5-fluoro-N2-[4-(oxazol-2-yl)phenyl]-2,4-pyrimidinediamine] | < 5.00 | 
6 | COc1c(C)cc(Nc2ncc(F)c(Nc3ccc4c(n3)NC(=O)CO4)n2)cc1C [Compound 1059, N2-(3,5-Dimethyl-4-methoxyphenyl)-5-fluoro-N4-(3-oxo-2H,4H-5-pyrid[1,4]oxazin-6-yl)-2,4-pyrimidinediamine] | > 5.00 | 
7 | COc1cccc(Nc2ncc(F)c(Nc3ccc4c(n3)NC(=O)CO4)n2)c1C [Compound 1061, 5-Fluoro-N2-(3-methoxy-2-methylphenyl)-N4-(3-oxo-2H,4H-5-pyrid[1,4]oxazin-6-yl)-2,4-pyrimidinediamine] | > 5.00 | 
8 | Cc1c(O)cccc1Nc1ncc(F)c(Nc2ccc3c(n2)NC(=O)CO3)n1 [Compound 1063, 5-Fluoro-N2-(3-hydroxy-2-methylphenyl)-N4-(3-oxo-2H,4H-5-pyrid[1,4]oxazin-6-yl)-2,4-pyrimidinediamine] | > 5.00 | 
9 | Cc1c(O)cccc1Nc1ncc(F)c(Nc2ccc3c(n2)NC(=O)C(C)(C)O3)n1 [Compound 1064, N4-(2,2-Dimethyl-3-oxo-4H-5-pyrid[1,4]oxazin-6-yl)-5-fluoro-N2-(3-hydroxy-2-methylphenyl)-2,4-pyrimidinediamine] | > 5.00 | 
10 | COc1cccc(Nc2ncc(F)c(Nc3ccc4c(n3)NC(=O)C(C)(C)O4)n2)c1C [Compound 1065, N4-(2,2-Dimethyl-3-oxo-4H-5-pyrid[1,4]oxazin-6-yl)-5-fluoro-N2-(3-methoxy-2-methylphenyl)-2,4-pyrimidinediamine] |  | pIC50 [4]: > 5.00
11 | COC(=O)COc1cccc(Nc2ncc(F)c(Nc3ccc4c(c3)NC(=O)C(C)(C)O4)n2)c1C [Compound 1066, N4-(2,2-Dimethyl-3-oxo-4H-benz[1,4]oxazin-6-yl)-5-fluoro-N2-[3-methoxycarbonylmethyleneoxy-2-methylphenyl]-2,4-pyrimidinediamine] |  | pIC50 [4]: > 5.00
12 | CNC(=O)COc1cccc(Nc2ncc(F)c(Nc3ccc4c(c3)NC(=O)C(C)(C)O4)n2)c1C [Compound 1067, N4-(2,2-Dimethyl-3-oxo-4H-benz[1,4]oxazin-6-yl)-5-fluoro-N2-[2-methyl-3-(N-methylamino)carbonylmethyleneoxyphenyl]-2,4-pyrimidinediamine] | > 5.00 | 
13 | CNC(=O)COc1cccc(Nc2ncc(F)c(Nc3ccc4c(n3)NC(=O)CO4)n2)c1C [Compound 1068, 5-Fluoro-N2-[2-methyl-3-(N-methylamino)carbonylmethyleneoxyphenyl]-N4-(3-oxo-2H,4H-5-pyrid[1,4]oxazin-6-yl)-2,4-pyrimidinediamine] | > 5.00 | 
14 | Cc1cc(Nc2ncc(F)c(Nc3ccc4c(n3)NC(=O)CO4)n2)cc(C)c1O [Compound 1069, N2-(3,5-Dimethyl-4-hydroxyphenyl)-5-fluoro-N4-(3-oxo-2H,4H-5-pyrid[1,4]oxazin-6-yl)-2,4-pyrimidinediamine] | > 5.00 | 
15 | CCOC(=O)N1CCN(c2cccc(Nc3ncc(F)c(Nc4ccc5c(n4)NC(=O)CO5)n3)c2)CC1 [Compound 1070, N2-[3-(4-Ethoxycarbonylpiperazino)phenyl]-5-fluoro-N4-(3-oxo-2H,4H-5-pyrid[1,4]oxazin-6-yl)-2,4-pyrimidinediamine] | > 5.00 | 
16 | CC(=O)N1CCN(c2cccc(Nc3ncc(F)c(Nc4ccc5c(n4)NC(=O)CO5)n3)c2)CC1 [Compound 1071, N2-[3-(4-Acetylpiperazino)phenyl]-5-fluoro-N4-(3-oxo-2H,4H-5-pyrid[1,4]oxazin-6-yl)-2,4-pyrimidinediamine] | > 5.00 | 

Row | Structure (SMILES) | pIC50 [3] | other results
17 | CCOC(=O)N1CCN(c2ccc(Nc3ncc(F)c(Nc4ccc5c(n4)NC(=O)CO5)n3)cc2)CC1 [Compound 1072, N2-[4-(4-Ethoxycarbonylpiperazino)phenyl]-5-fluoro-N4-(3-oxo-2H,4H-5-pyrid[1,4]oxazin-6-yl)-2,4-pyrimidinediamine] | > 5.00 | 
18 | O=C1COc2ccc(Nc3nc(Nc4cccc(N5CCOCC5)c4)ncc3F)nc2N1 [Compound 1073, 5-Fluoro-N2-(3-morpholinophenyl)-N4-(3-oxo-2H,4H-5-pyrid[1,4]oxazin-6-yl)-2,4-pyrimidinediamine] | > 5.00 | 
19 | CN1CCN(c2cccc(Nc3ncc(F)c(Nc4ccc5c(n4)NC(=O)CO5)n3)c2)CC1 [Compound 1074, 5-Fluoro-N2-[3-(4-methylpiperazion)phenyl]-N4-(3-oxo-2H,4H-5-pyrid[1,4]oxazin-6-yl)-2,4-pyrimidinediamine] | > 5.00 | 
20 | CCOC(=O)N1CCN(c2cccc(Nc3ncc(F)c(Nc4ccc5c(n4)NC(=O)C(C)(C)O5)n3)c2)CC1 [Compound 1075, N4-(2,2-Dimethyl-3-oxo-4H-5-pyrid[1,4]oxazin-6-yl)-N2-[3-(4-ethoxycarbonylpiperazino)phenyl]-5-fluoro-2,4-pyrimidinediamine] | > 5.00 | 
21 | CC(=O)N1CCN(c2cccc(Nc3ncc(F)c(Nc4ccc5c(n4)NC(=O)C(C)(C)O5)n3)c2)CC1 [Compound 1076, N2-[3-(4-Acetylpiperazino)phenyl]-N4-(2,2-dimethyl-3-oxo-4H-5-pyrid[1,4]oxazin-6-yl)-5-fluoro-2,4-pyrimidinediamine] | > 5.00 | 
22 | CCOC(=O)N1CCN(c2ccc(Nc3ncc(F)c(Nc4ccc5c(n4)NC(=O)C(C)(C)O5)n3)cc2)CC1 [Compound 1077, N4-(2,2-Dimethyl-3-oxo-4H-5-pyrid [1,4]oxazin-6-yl)-N2-[4-(4-ethoxycarbonylpiperazino)phenyl]-5-fluoro-2,4-pyrimidinediamine] | > 5.00 | 
23 | CC1(C)Oc2ccc(Nc3nc(Nc4cccc(N5CCOCC5)c4)ncc3F)nc2NC1=O [Compound 1078, N4-(2,2-Dimethyl-3-oxo-4H-5-pyrid[1,4]oxazin-6-yl)-5-fluoro-N2-(3-morpholinophenyl)-2,4-pyrimidinediamine] | > 5.00 | 
24 | CNC(=O)COc1cccc(Nc2ncc(F)c(Nc3ccc4c(n3)NC(=O)C(C)(C)O4)n2)c1C [Compound 1079, N4-(2,2-Dimethyl-3-oxo-4H-5-pyrid [1,4]oxazin-6-yl)-5-fluoro-N2-[2-methyl-3-(N-methylamino)carbonylmethyleneoxyphenyl]-2,4-pyrimidinediamine] | > 5.00 | 
25 | CN1CCN(c2cccc(Nc3ncc(F)c(Nc4ccc5c(n4)NC(=O)C(C)(C)O5)n3)c2)CC1 [Compound 1080, N4-(2,2-Dimethyl-3-oxo-4H-5-pyrid [1,4]oxazin-6-yl)-5-fluoro-N2-[3-(4-methylpiperazino)phenyl]-2,4-pyrimidinediamine] | > 5.00 | 
26 | COc1ccc(Nc2ncc(F)c(Nc3ccc4c(n3)NC(=O)[C@H](C)O4)n2)cc1Cl [Compound 1081, (S)—N2-(3-Chloro-4-methoxyphenyl)-5-fluoro-N4-(2-methyl-3-oxo-2H,4H-5-pyrid[1,4]oxazin-6-yl)-2,4-pyrimidinediamine] | > 5.00 | pIC50 [4]: > 5.00
27 | COc1cc(Nc2ncc(F)c(Nc3ccc4c(n3)NC(=O)[C@H](C)O4)n2)cc(OC)c1OC [Compound 1082, (S)-5-Fluoro-N4-(2-methyl-3-oxo-2H,4H-5-pyrid[1,4]oxazin-6-yl)-N2-(3,4,5-trimethoxyphenyl)-2,4-pyrimidinediamine] | > 5.00 | pIC50 [4]: > 5.00
28 | Cc1cc(C)cc(Nc2ncc(F)c(Nc3ccc4c(n3)NC(=O)[C@H](C)O4)n2)c1 [Compound 1084, (S)—N2-(3,5-Dimethylphenyl)-5-fluoro-N4-(2-methyl-3-oxo-2H,4H-5-pyrid[1,4]oxazin-6-yl)-2,4-pyrimidinediamine] | > 5.00 | pIC50 [4]: < 5.00
29 | Fc1cnc(Nc2cccc(-c3cnco3)c2)nc1Nc1ccc2c(n1)NCCO2 [Compound 1132, N4-(3,4-Dihydro-2H,4H-5-pyrid[1,4]oxazin-6-yl)-5-fluoro-N2-[3-(oxazol-5-yl)phenyl]-2,4-pyrimidinediamine] | > 5.00 | 
30 | CC(=O)N1CCN(c2ccc(Nc3ncc(F)c(Nc4ccc5c(n4)NCCO5)n3)cc2)CC1 [Compound 1134, N2-[4-(4-Acetylpiperazino)phenyl]-N4-(3,4-dihydro-2H,4H-5-pyrid[1,4]oxazin-6-yl)-5-fluoro-2,4-pyrimidinediamine] | > 5.00 | pIC50 [4]: > 5.00
31 | CCOC(=O)N1CCN(c2ccc(Nc3ncc(F)c(Nc4ccc5c(n4)NCCO5)n3)cc2)CC1 [Compound 1135, N4-(3,4-Dihydro-2H,4H-5-pyrid[1,4]oxazin-6-yl)-N2-[4-(4-ethoxycarbonylpiperazino)phenyl]-5-fluoro-2,4-pyrimidinediamine] | > 5.00 | pIC50 [4]: > 5.00
